Assay results taken from PMC3353862.
Converted amounts (≈) assume the structure as drawn.

Experiments:
E. coli tolC mutants = assay: Broth microdilution MIC testing; format: cell-based, Escherichia coli; conditions: for MIC: Escherichia coli, read-out: MIC E. coli tolC; for MIC E. coli tolC: E. coli tolC mutants
[1] = system: bacterial protein synthesis (aminoacylation/translation system); assay: aminoacylation/translation (A/T) assay; format: biochemical; conditions: A/T assay, Table 1; read-out: IC50
S. aureus = assay: Broth microdilution MIC testing; format: cell-based, Staphylococcus aureus; conditions: for MIC: Staphylococcus aureus, read-out: MIC S. aureus
S. pneumoniae = assay: Broth microdilution MIC testing; format: cell-based, Streptococcus pneumoniae; conditions: for MIC: Streptococcus pneumoniae, read-out: MIC S. pneumo; for MIC S. pneumo: S. pneumoniae
H. influenzae = assay: Broth microdilution MIC testing; format: cell-based, Haemophilus influenzae; conditions: for MIC: Haemophilus influenzae, read-out: MIC H. flu; for MIC H. flu: H. influenzae
[2] = system: E. coli modified with PMBN; assay: Broth microdilution MIC testing; format: cell-based, Escherichia coli; conditions: for MIC: Escherichia coli, read-out: MIC E. coli +PMBP; for MIC E. coli +PMBP: E. coli modified with PMBN
M. catarrhalis = assay: Broth microdilution MIC testing; format: cell-based, Moraxella catarrhalis; conditions: for MIC: Moraxella catarrhalis
E. faecalis = assay: Broth microdilution MIC testing; format: cell-based, Enterococcus faecalis; conditions: for MIC: Enterococcus faecalis, read-out: MIC E. fae; for MIC E. fae: E. faecalis

SMILES	MIC (E. coli tolC mutants) [µg/mL]	IC50 [1] [nM]	MIC (S. aureus) [µg/mL]	MIC (S. pneumoniae) [µg/mL]	MIC (H. influenzae) [µg/mL]	MIC [2] [µg/mL]	MIC (M. catarrhalis) [µg/mL]	MIC (E. faecalis) [µg/mL]	MIC E. coli tolC (E. coli tolC mutants) [µg/mL]	MIC S. pneumo (S. pneumoniae) [µg/mL]	MIC H. flu (H. influenzae) [µg/mL]	MIC S. aureus (S. aureus) [µg/mL]	MIC E. coli +PMBP [2] [µg/mL]	MIC M. cat (M. catarrhalis) [µg/mL]	MIC E. fae (E. faecalis) [µg/mL]
Oc1nc(-c2cccnc2)nc2c1CN(Cc1cccc(F)c1)CC2 [Compound 321376]	> 128	> 300000	> 128	–	–	–	–	–	–	–	–	–	–	–	–
Oc1nc(-c2ccncc2)nc2c1CN(Cc1cccc(F)c1)CC2 [Compound 321386]	> 128	> 300000	> 128	> 128	> 128	> 128	> 128	> 128	–	–	–	–	–	–	–
COc1cccc(CN2CCc3nc(-c4ccncc4)nc(O)c3C2)c1 [Compound 321388]	> 128	> 300000	> 128	> 128	> 128	> 128	> 128	> 128	–	–	–	–	–	–	–
Oc1nc(-c2ccccn2)nc2c1CN(Cc1ccc(F)cc1)CC2 [Compound 321521]	16 (≈ 47.6 µM)	2400	128 (≈ 381 µM)	16 (≈ 47.6 µM)	4 (≈ 11.9 µM)	64 (≈ 190 µM)	0.5 (≈ 1.49 µM)	16 (≈ 47.6 µM)	–	–	–	–	–	–	–
Oc1ccccc1CN1CCc2nc(-c3ccccn3)nc(O)c2C1 [Compound 321522]	32 (≈ 95.7 µM)	2600	128 (≈ 383 µM)	16 (≈ 47.8 µM)	2 (≈ 5.98 µM)	64 (≈ 191 µM)	1 (≈ 2.99 µM)	16 (≈ 47.8 µM)	–	–	–	–	–	–	–
Oc1nc(-c2ccccn2)nc2c1CN(Cc1ccccc1)CC2 [Compound 321524]	16 (≈ 50.3 µM)	2000	128 (≈ 402 µM)	16 (≈ 50.3 µM)	4 (≈ 12.6 µM)	64 (≈ 201 µM)	1 (≈ 3.14 µM)	16 (≈ 50.3 µM)	–	–	–	–	–	–	–
COc1ccccc1CN1CCc2nc(-c3ccccn3)nc(O)c2C1 [Compound 321527]	64 (≈ 184 µM)	1800	> 128	32 (≈ 91.8 µM)	16 (≈ 45.9 µM)	> 128	2 (≈ 5.74 µM)	64 (≈ 184 µM)	–	–	–	–	–	–	–
COc1ccc(CN2CCc3nc(-c4ccccn4)nc(O)c3C2)cc1 [Compound 321529]	32 (≈ 91.8 µM)	2600	> 128	32 (≈ 91.8 µM)	8 (≈ 23 µM)	128 (≈ 367 µM)	2 (≈ 5.74 µM)	128 (≈ 367 µM)	–	–	–	–	–	–	–
COc1ccc(OC)c(CN2CCc3nc(-c4ccccn4)[nH]c(=O)c3C2)c1 [Compound 323191]	–	> 300000	–	–	–	–	–	–	128 (≈ 338 µM)	32 (≈ 84.6 µM)	32 (≈ 84.6 µM)	> 128	64 (≈ 169 µM)	4 (≈ 10.6 µM)	128 (≈ 338 µM)
O=c1[nH]c(-c2ccccn2)nc2c1CN(Cc1ccccc1OCc1ccccn1)CC2 [Compound 323192]	–	> 300000	–	–	–	–	–	–	128 (≈ 301 µM)	32 (≈ 75.2 µM)	64 (≈ 150 µM)	> 128	64 (≈ 150 µM)	4 (≈ 9.4 µM)	128 (≈ 301 µM)
C=CCOc1ccccc1CN1CCc2nc(-c3ccccn3)[nH]c(=O)c2C1 [Compound 323194]	–	3400	–	–	–	–	–	–	16 (≈ 42.7 µM)	8 (≈ 21.4 µM)	8 (≈ 21.4 µM)	64 (≈ 171 µM)	16 (≈ 42.7 µM)	1 (≈ 2.67 µM)	64 (≈ 171 µM)
O=c1[nH]c(-c2ccccn2)nc2c1CN(Cc1ccccc1N1CCCC1)CC2 [Compound 323195]	–	1500	–	–	–	–	–	–	32 (≈ 82.6 µM)	32 (≈ 82.6 µM)	16 (≈ 41.3 µM)	64 (≈ 165 µM)	16 (≈ 41.3 µM)	2 (≈ 5.16 µM)	64 (≈ 165 µM)
O=c1[nH]c(-c2ccccn2)nc2c1CN(Cc1cccc(O)c1O)CC2 [Compound 323196]	–	1600	–	–	–	–	–	–	> 128	> 128	> 128	> 128	> 128	128 (≈ 365 µM)	32 (≈ 91.3 µM)
COc1cccc(CN2CCc3nc(-c4ccccn4)[nH]c(=O)c3C2)c1O [Compound 323197]	–	4400	–	–	–	–	–	–	> 128	128 (≈ 351 µM)	32 (≈ 87.8 µM)	> 128	> 128	16 (≈ 43.9 µM)	> 128
O=c1[nH]c(-c2ccccn2)nc2c1CN(Cc1c(F)cccc1F)CC2 [Compound 323198]	–	2700	–	–	–	–	–	–	32 (≈ 90.3 µM)	16 (≈ 45.2 µM)	8 (≈ 22.6 µM)	> 128	64 (≈ 181 µM)	1 (≈ 2.82 µM)	> 128
CCOc1cc2c(cc1CN1CCc3nc(-c4ccccn4)[nH]c(=O)c3C1)OCO2 [Compound 323199]	–	1100	–	–	–	–	–	–	32 (≈ 78.7 µM)	16 (≈ 39.4 µM)	16 (≈ 39.4 µM)	128 (≈ 315 µM)	32 (≈ 78.7 µM)	1 (≈ 2.46 µM)	128 (≈ 315 µM)
COc1ccc(CN2CCc3nc(-c4ccccn4)[nH]c(=O)c3C2)c(C)c1C [Compound 323202]	–	4300	–	–	–	–	–	–	8 (≈ 21.3 µM)	4 (≈ 10.6 µM)	4 (≈ 10.6 µM)	16 (≈ 42.5 µM)	32 (≈ 85 µM)	0.25 (≈ 0.664 µM)	32 (≈ 85 µM)
